According to patent US8952024B2, “Herbicidal pyrimidone derivatives” (E I du Pont de Nemours and Company, priority 2009, dated 2015):

How the values were obtained:
Type in all cases: in vivo
[1] = test system: Russian thistle (Salsola kali); test: Test B pre-/postemergence plant response; conditions: Preemergence; for Russian Thistle plant response rating: 250 g ai/ha, 0 to 100 scale
In short: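 Steps: sow seed in loam–sand soil and spray preemergence, or grow plants in peat-based medium to 1–4 leaves (2–18 cm) and spray postemergence; formulation is non-phytotoxic solvent plus surfactant; hold in greenhouse 13–15 days; score visually vs controls, 0 = no effect, 100 = complete control.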

[2] = test system: Surinam grass (Brachiaria decumbens); test: Test D pre-/postemergence plant response
From the text: (§1) Seeds of plant species selected from bermudagrass (Cynodon dactylon), Surinam grass (Brachiaria decumbens), large crabgrass (Digitaria sanguinalis), green foxtail (Setaria viridis), goosegrass (Eleusine indica), johnsongrass (Sorghum halepense), kochia (Kochia scoparia), morningglory (pitted morningglory, Ipomoea lacunosa), nutsedge (purple nutsedge, Cyperus rotundus), ragweed (common ragweed, Ambrosia elatior), black mustard (Brassica nigra), guineagrass (Panicum maximum), dallisgrass (Paspalum dilatatum), barnyardgrass (Echinochloa crus-galli), sandbur (southern sandbur, Cenchrus echinatus), sowthistle (common sowthistle, Sonchus oleraceous), prickly sida (Sida spinosa), Italian ryegrass (Lolium multiflorum), purslane (common purslane, Portulaca oleracea), signalgrass (broadleaf signalgrass, Brachiaria platyphylla), groundsel (common groundsel, Senecio vulgaris), chickweed (common chickweed, Stellaria media), dayflower (Virginia (VA) dayflower, Commelina virginica), bluegrass (annual bluegrass, Poa annua), naked crabgrass (Digitaria nuda), itchgrass (Rottboellia cochinchinensis), quackgrass (Elytrigia repens), field bindweed (Convolvulus arvensis), spanishneedles (Bidens bipinnata), mallow (common mallow, Malva sylvestris) and Russian thistle (Salsola kali), were planted into a blend of loam soil and sand and treated preemergence with test chemicals formulated in a non-phytotoxic solvent mixture which included a surfactant. At the same time, plants from these weed species were treated with postemergence applications of the test chemicals formulated in the same manner. Plants ranged in height from 2 to 18 cm (1- to 4-leaf stage) for postemergence treatments.
(§2) Treated plants and controls were maintained in a greenhouse for 14 to 21 days, after which time all species were visually evaluated and compared to controls. Plant response ratings, summarized in Table D, are based on a scale of 0 to 100 where 0 is no effect and 100 is complete control. A dash (-) response means no test result.

[3] = test system: chickweed (common chickweed, Stellaria media); test: Test D pre-/postemergence plant response; conditions: Postemergence
From the text: as §1, §2

[4] = test system: dayflower (Virginia (VA) dayflower, Commelina virginica); test: Test D pre-/postemergence plant response
From the text: as §1, §2

[5] = test system: field bindweed (Convolvulus arvensis); test: Test D pre-/postemergence plant response
From the text: as §1, §2

kochia (Kochia scoparia) = test: Test D pre-/postemergence plant response
From the text: as §1, §2

[6] = test system: large crabgrass (Digitaria sanguinalis); test: Test D pre-/postemergence plant response
From the text: as §1, §2

[7] = test system: morningglory (pitted morningglory, Ipomoea lacunosa); test: Test D pre-/postemergence plant response
From the text: as §1, §2

[8] = test system: naked crabgrass (Digitaria nuda); test: Test D pre-/postemergence plant response
From the text: as §1, §2

[9] = test system: prickly sida (Sida spinosa); test: Test D pre-/postemergence plant response
From the text: as §1, §2

[10] = test system: sandbur (southern sandbur, Cenchrus echinatus); test: Test D pre-/postemergence plant response
From the text: as §1, §2

[11] = 125 g ai/ha, scale 0 to 100, 0 no effect, 100 complete control
[12] = 31 g ai/ha, scale 0 to 100 (0 no effect, 100 complete control)
[13] = 62 g ai/ha, scale 0 to 100, 0 no effect, 100 complete control
[14] = Postemergence, 31 g ai/ha, scale 0 to 100
[15] = Postemergence, 125 g ai/ha, scale 0 to 100 (0 no effect, 100 complete control)
[16] = Postemergence, 62 g ai/ha, scale 0 to 100 (0 no effect, 100 complete control)
[17] = Preemergence, 16 g ai/ha, scale 0 to 100, 0 no effect, 100 complete control
[18] = Preemergence, 31 g ai/ha, scale 0 to 100 (0 no effect, 100 complete control)
[19] = Preemergence, 125 g ai/ha, scale 0 to 100
[20] = Preemergence, rate not given, scale 0 to 100, 0 no effect, 100 complete control
[21] = 125 g ai/ha, scale 0 to 100 (0 no effect, 100 complete control)
[22] = 62 g ai/ha, scale 0 to 100 (0 no effect, 100 complete control)
[23] = Postemergence, 16 g ai/ha, scale 0 to 100
[24] = Preemergence, 62 g ai/ha, scale 0 to 100
[25] = Postemergence, 250 g ai/ha, scale 0 to 100 (0 no effect, 100 complete control)

CC(C)Cc1ncc(C(=O)C2=C(O)CCCC2=O)c(=O)n1-c1ccccc1 [Compound 68]
Plant response rating, Russian Thistle [1, 11]: 80

O=C1CCCC(O)=C1C(=O)c1cnc(-c2cccc(Br)c2)n(-c2ccccc2)c1=O [Compound 69]
Plant response rating, Russian Thistle [1, 12]: 100
Plant response rating, Russian Thistle [1, 13]: 100
Plant response rating, Russian Thistle [1, 11]: 100

CCCc1ncc(C(=O)C2=C(O)CCCC2=O)c(=O)n1CCC [Compound 72]
Plant response rating, Russian Thistle [1, 12]: 0
Plant response rating, Russian Thistle [1, 13]: 30
Plant response rating, Russian Thistle [1, 11]: 80

COCCCn1c(-c2ccccc2)ncc(C(=O)C2=C(O)CCCC2=O)c1=O [Compound 81, 5-[(2-hydroxy-6-oxo-cyclohexen-1-yl)carbonyl]-3-(3-methoxypropyl)-2-phenyl-4(3H)-pyrimidinone]
Plant response rating, Russian Thistle [1, 12]: 100
Plant response rating, Russian Thistle [1, 13]: 100
Plant response rating, Russian Thistle [1, 11]: 100
Russian Thistle plant response rating [1]: 100

O=C1CCCC(O)=C1C(=O)c1cnc(-c2ccccc2)n(C2CCCCC2)c1=O [Compound 128, 3-cyclohexyl-5-[(2-hydroxy-6-oxo-1-cyclohexen-1-yl)carbonyl]-2-phenyl-4(3H)-pyrimidinone]
Plant response rating, Surinam Grass [2, 14]: 25
Plant response rating, Surinam Grass [2, 15]: 50
Plant response rating, Surinam Grass [2, 16]: 30
Plant response rating, Surinam Grass [2, 17]: 0
Plant response rating, Surinam Grass [2, 18]: 35
Plant response rating, Surinam Grass [2, 19]: 90
Plant response rating, Surinam Grass [2, 20]: 80
Plant response rating, Chickweed ([3]; 16 g ai/ha, scale 0 to 100): 60
Plant response rating, Chickweed [3, 21]: 70
Plant response rating, Chickweed [3, 22]: 65
Plant response rating, Dayflower, VA [4, 23]: 50
Plant response rating, Dayflower, VA [4, 14]: 50
Plant response rating, Dayflower, VA [4, 15]: 70
Plant response rating, Dayflower, VA [4, 16]: 60
Plant response rating, Dayflower, VA [4, 18]: 0
Plant response rating, Dayflower, VA [4, 24]: 10
Plant response rating, Dayflower, VA [4, 19]: 25
Plant response rating, Field Bindweed [5, 23]: 50
Plant response rating, Field Bindweed [5, 14]: 50
Plant response rating, Field Bindweed [5, 15]: 65
Plant response rating, Field Bindweed [5, 16]: 65
Plant response rating, Field Bindweed [5, 17]: 0
Plant response rating, Field Bindweed [5, 18]: 0
Plant response rating, Field Bindweed [5, 24]: 35
Plant response rating, Field Bindweed [5, 19]: 98
Plant response rating, Kochia (kochia (Kochia scoparia); [23]): 20
Plant response rating, Kochia (kochia (Kochia scoparia); [14]): 30
Plant response rating, Kochia (kochia (Kochia scoparia); [15]): 40
Plant response rating, Kochia (kochia (Kochia scoparia); [16]): 30
Plant response rating, Kochia (kochia (Kochia scoparia); [17]): 0
Plant response rating, Kochia (kochia (Kochia scoparia); [18]): 0
Plant response rating, Kochia (kochia (Kochia scoparia); [24]): 50
Plant response rating, Kochia (kochia (Kochia scoparia); [19]): 50
Plant response rating, Crabgrass, Large [6, 23]: 40
Plant response rating, Crabgrass, Large [6, 14]: 50
Plant response rating, Crabgrass, Large [6, 15]: 70
Plant response rating, Crabgrass, Large [6, 16]: 60
Plant response rating, Crabgrass, Large [6, 17]: 0
Plant response rating, Crabgrass, Large [6, 18]: 25
Plant response rating, Crabgrass, Large [6, 24]: 60
Plant response rating, Morningglory [7, 23]: 65
Plant response rating, Morningglory [7, 14]: 65
Plant response rating, Morningglory [7, 15]: 70
Plant response rating, Morningglory [7, 16]: 70
Plant response rating, Morningglory [7, 18]: 0
Plant response rating, Morningglory [7, 24]: 0
Plant response rating, Morningglory [7, 19]: 90
Plant response rating, Crabgrass, Naked [8, 23]: 35
Plant response rating, Crabgrass, Naked [8, 14]: 65
Plant response rating, Crabgrass, Naked [8, 15]: 75
Plant response rating, Crabgrass, Naked [8, 16]: 70
Plant response rating, Crabgrass, Naked [8, 17]: 0
Plant response rating, Crabgrass, Naked [8, 18]: 0
Plant response rating, Crabgrass, Naked [8, 24]: 0
Plant response rating, Crabgrass, Naked [8, 19]: 75
Plant response rating, Prickly Sida [9, 23]: 50
Plant response rating, Prickly Sida [9, 14]: 60
Plant response rating, Prickly Sida [9, 15]: 80
Plant response rating, Prickly Sida [9, 16]: 65
Plant response rating, Prickly Sida [9, 17]: 0
Plant response rating, Prickly Sida [9, 18]: 0
Plant response rating, Prickly Sida [9, 24]: 25
Plant response rating, Prickly Sida [9, 19]: 30
Plant response rating, Sandbur [10, 23]: 5
Plant response rating, Sandbur [10, 14]: 5
Plant response rating, Sandbur [10, 15]: 35
Plant response rating, Sandbur [10, 16]: 5
Plant response rating, Sandbur [10, 17]: 0
Plant response rating, Sandbur [10, 18]: 0
Plant response rating, Sandbur [10, 19]: 20
Plant response rating, Sandbur [10, 20]: 20

CCCCn1c(C2CC2)ncc(C(=O)C2=C(O)CCCC2=O)c1=O [Compound 193]
Plant response rating, Russian Thistle [1, 12]: 90
Plant response rating, Russian Thistle [1, 13]: 98
Plant response rating, Russian Thistle [1, 11]: 100
Russian Thistle plant response rating [1]: 100

CCCn1c(-c2ccccc2)ncc(C(=O)C2=C(O)C3CCC(C3)C2=O)c1=O (stereo not shown) [Compound 226]
Plant response rating, Surinam Grass [2, 15]: 90
Plant response rating, Surinam Grass [2, 25]: 90
Plant response rating, Surinam Grass [2, 16]: 70
Plant response rating, Chickweed [3, 21]: 35
Plant response rating, Chickweed ([3]; 250 g ai/ha, scale 0 to 100 (0 no effect, 100 complete control)): 85
Plant response rating, Chickweed [3, 22]: 35
Plant response rating, Dayflower, VA [4, 25]: 65
Plant response rating, Dayflower, VA [4, 16]: 50
Plant response rating, Field Bindweed [5, 15]: 70
Plant response rating, Field Bindweed [5, 25]: 80
Plant response rating, Field Bindweed [5, 16]: 70
Plant response rating, Kochia (kochia (Kochia scoparia); [15]): 70
Plant response rating, Kochia (kochia (Kochia scoparia); [25]): 70
Plant response rating, Kochia (kochia (Kochia scoparia); [16]): 60
Plant response rating, Crabgrass, Large [6, 15]: 75
Plant response rating, Crabgrass, Large [6, 25]: 85
Plant response rating, Crabgrass, Large [6, 16]: 75
Plant response rating, Morningglory [7, 15]: 70
Plant response rating, Morningglory [7, 25]: 80
Plant response rating, Morningglory [7, 16]: 70
Plant response rating, Crabgrass, Naked [8, 15]: 70
Plant response rating, Crabgrass, Naked [8, 25]: 75
Plant response rating, Crabgrass, Naked [8, 16]: 65
Plant response rating, Prickly Sida [9, 15]: 70
Plant response rating, Prickly Sida [9, 25]: 75
Plant response rating, Prickly Sida [9, 16]: 65
Plant response rating, Sandbur [10, 15]: 75
Plant response rating, Sandbur [10, 25]: 75
Plant response rating, Sandbur [10, 16]: 75
